Assay results from PMC4786250, “Effects of Intraosseous Tibial vs. Intravenous Vasopressin in a Hypovolemic Cardiac Arrest Model” (Western Journal of Emergency Medicine, 2016).

How the values were obtained:
[1] = tested on: hypovolemic cardiac arrest model; assay: Return of spontaneous circulation (ROSC) in a hypovolemic cardiac arrest model; type: in vivo, Yorkshire swine; conditions: for time to ROSC: 40 units, mean ± standard deviation, SD; for Number achieving ROSC / Number not achieving ROSC: 40 units + CPR + defibrillation, up to 20 min
Excerpt: (§1) The study was a prospective, between-subjects, experimental design. The Institutional Animal Care and Use Committee (IACUC) approved the research protocol, and the animals received care in compliance with the Animal Welfare Act. Twenty-eight Yorkshire swine were randomly assigned by a computer generated random number program to one of four groups: IV + defibrillation (n=7), IO tibia + defibrillation (n=7), CPR + defibrillation (n=7), and a control group that received just CPR (n=7). Two additional swine were added in the each of the IV and IO groups for model development. These two swine meet the criteria for inclusion in the study, and no changes were necessary in the protocol. Therefore, the pigs were included in both groups to make a total of eight in both the tibial IO and IV groups. However, one pig in the IO group was ill and was deleted from the study making a total of seven in that group.
(§2) In addition, their blood volume is the same as humans: 70ml per kg of body weight.[18],[19] To avoid any variability in subjects, we purchased the swine from the same vendor and acquired pigs that were approximately the same size. Male swine were used to avoid any potential hormonal effects. Subjects weighing between 60 to 80kg were used as this range represents the average weight of an adult, human.[20] […] All subjects received no food after midnight the evening before the study but were allowed fluids as desired until the experiment
(§3) Each subject received pre-emptive analgesia with Telazol (4–8mg/kg). They were then sedated, anesthetized, intubated, and placed on mechanical ventilation. A standard Narkomed® anesthesia machine (Dräger, Telford, PA) was used to deliver isoflurane at a maintenance dose (0.5–2%) and ventilation at 8–10mL/kg at 10–14 breaths per minute. A peripheral IV was started on all subjects using an 18- or 20-gauge catheter in the auricular vein. […] Hemodynamics were evaluated continuously that included the following: electrocardiogram, arterial blood pressure via a left carotid artery catheter, mean arterial pressure, oxygen saturation, end-tidal carbon dioxide, and temperature. A forced-air warming blanket was used to sustain rectal temperature greater than 36 degrees Celsius. A Vigileo™ (Edwards Lifesciences, Irvine, CA) was used to obtain cardiac output and stroke volume measurements via the arterial line. The femoral artery was cannulated for the collection of blood samples and for the achievement of controlled hemorrhage.
(§4) For swine in the tibial IO group, we inserted an EZ-IO® device (Vidacare, San Antonio, TX) in the proximal, medial tibia. Placement was confirmed by aspiration of blood and easy irrigation with 10mL of 0.9% normal saline (NS). Patency was maintained by administering Lactated Ringer’s solution with a pressure bag at 300mmHg. Subjects were allowed to stabilize for 15 minutes; we then exsanguinated 31% of their blood volume from the femoral artery catheter into a canister. This represented a Class III hemorrhage. Hemorrhage was accomplished by allowing blood to drain by gravity over approximately 15 minutes. To ensure the amount exsanguinated was correct, the investigators used a scale that was accurate and precise within 0.5%.
(§5) In response to hypovolemic shock in accordance with Tactical Combat Casualty Care guidelines, we administered 500mL of 5% albumin to all subjects over 10 minutes.[22] Five minutes after the administration of albumin, the investigators placed the pigs in cardiac arrest, defined as a nonperfusing arrhythmia. […] The needles were attached to alligator clamps. The clamps were attached to three 9-volt batteries that were connected in a series to deliver an electrical current, thereby inducing nonperfusing ventricular fibrillation. We were able to establish ventricular fibrillation usually within 10 seconds. In some cases, we had to reposition the needles resulting in 100% being placed into ventricular fibrillation.
(§6) The pigs were allowed to remain in arrest for two minutes. […]

[2] = Vasopressin concentration in blood samples (HPLC-MS/MS) after tibial IO or IV administration in a hypovolemic cardiac arrest model; type: in vivo, Yorkshire swine; conditions: 40 units; for Cmax / Tmax / level at 1 min: Yorkshire, serum; for Cmax / Tmax: pig, mean ± standard deviation; for Cmax: during CPR, male swine 60-80 kg, 31% blood volume hemorrhage, ventricular fibrillation, femoral artery samples 0.5-4 min, HPLC-MS/MS; for Tmax / level at 1 min: male; for Tmax: SD; for level at 1 min: 60 seconds after injection, mean ± standard error, SEM
Excerpt: as §1, §2, §3, §4, §5, §6

NC(=O)CC[C@@H]1NC(=O)[C@H](Cc2ccccc2)NC(=O)[C@H](Cc2ccc(O)cc2)NC(=O)[C@@H](N)CSSC[C@@H](C(=O)N2CCC[C@H]2C(=O)N[C@@H](CCCN=C(N)N)C(=O)NCC(N)=O)NC(=O)[C@H](CC(N)=O)NC1=O [vasopressin]
time to ROSC ([1]; IO group (line "IO vs. CPR + defibrillation")): 493 ± 226 s
Odds of ROSC ([1]; IO vs. CPR + defibrillation): 15
Odds of ROSC ([1]; IO vs. CPR only): 65
time to ROSC ([1]; IV group (line "IV vs. IO")): 559 ± 231 s
Odds of ROSC ([1]; IV vs. CPR + defibrillation): 17.5
Odds of ROSC ([1]; IV vs. CPR only): 75
Number achieving ROSC ([1]; IV, N=8): 7
Number not achieving ROSC ([1]; IV, N=8): 1
Number achieving ROSC ([1]; tibial IO, N=7): 6
Number not achieving ROSC ([1]; tibial IO, N=7): 1
Cmax ([2]; IV (auricular vein) push, n=8): 106 ng/mL
Cmax ([2]; tibial IO push, n=7): 58.7 ng/mL
Tmax ([2]; IV, n=8): 1.43 min
Tmax ([2]; tibial IO, n=7): 2.63 min
level at 1 min ([2]; IV, n=8): 76.8 ng/mL
level at 1 min ([2]; tibial IO, n=7): 23.6 ng/mL
Cmax concentration of the IO group compared to the IV group ([2]; tibial IO relative to IV): 55%
